Measurements as given in ChEMBL document CHEMBL6096703 (J Med Chem, 2025).
Activity calls are given as the source filed them. The calls are words filed in the database; no cut-off is given here.

Tests used:
[1] = tested on: MDA-MB-436; assay: Antitumor activity against luciferase tagged human MDA-MB-436 cells xenografted in female NOD-SCID mouse assessed as median survival time at 10 mg/kg, po administered once a day for 34 days; assay type: functional; settings: time 34 day
[2] = target: Poly [ADP-ribose] polymerase 1 (Homo sapiens, UniProt P09874); assay: Binding affinity to PARP1 (unknown origin) assessed as DNA trapping activity incubated for 1 hr by Envision 2105 plate reader analysis
Poly [ADP-ribose] polymerase 1, sequence (P09874 whole entry): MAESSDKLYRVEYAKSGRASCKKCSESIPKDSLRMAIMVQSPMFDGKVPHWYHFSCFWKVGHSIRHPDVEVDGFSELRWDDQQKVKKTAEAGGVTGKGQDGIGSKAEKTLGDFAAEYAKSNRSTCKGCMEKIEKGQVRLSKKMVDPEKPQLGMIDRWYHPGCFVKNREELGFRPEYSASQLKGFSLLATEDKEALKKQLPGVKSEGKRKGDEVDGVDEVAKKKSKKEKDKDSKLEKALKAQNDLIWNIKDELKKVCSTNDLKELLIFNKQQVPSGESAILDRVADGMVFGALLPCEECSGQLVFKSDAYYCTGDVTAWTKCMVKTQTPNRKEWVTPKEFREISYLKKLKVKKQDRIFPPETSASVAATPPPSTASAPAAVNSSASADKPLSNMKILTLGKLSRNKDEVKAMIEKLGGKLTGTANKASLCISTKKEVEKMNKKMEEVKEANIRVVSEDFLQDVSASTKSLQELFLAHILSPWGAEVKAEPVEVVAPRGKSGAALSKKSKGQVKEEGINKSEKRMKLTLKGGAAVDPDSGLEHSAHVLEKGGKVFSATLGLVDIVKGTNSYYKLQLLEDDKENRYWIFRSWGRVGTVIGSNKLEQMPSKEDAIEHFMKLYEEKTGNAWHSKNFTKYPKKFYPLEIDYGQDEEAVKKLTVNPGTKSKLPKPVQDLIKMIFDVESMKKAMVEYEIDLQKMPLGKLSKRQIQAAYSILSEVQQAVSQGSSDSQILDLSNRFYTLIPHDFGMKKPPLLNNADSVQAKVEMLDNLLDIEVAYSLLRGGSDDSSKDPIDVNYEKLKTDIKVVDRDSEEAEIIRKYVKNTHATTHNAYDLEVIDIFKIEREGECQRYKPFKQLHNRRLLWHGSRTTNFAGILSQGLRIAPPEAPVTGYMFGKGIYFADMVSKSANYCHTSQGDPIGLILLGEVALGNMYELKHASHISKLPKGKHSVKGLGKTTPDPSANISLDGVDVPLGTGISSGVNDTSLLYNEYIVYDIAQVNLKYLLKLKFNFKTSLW

[3] = Toxicity in female NOD/SCID mouse xenografted with human MDA-MB-436 cells assessed as change in body weight at 0.3 to 3 mg/kg, po administered once every other day for 28 days and measured every 2 days; assay type: organism-based; settings: in vivo, 672 h, dose 0.3-3 mg/kg, time 28 day
[4] = tested on: MDA-MB-436; assay: Induction of apoptosis in human MDA-MB-436 cells assessed as early apoptotic cells at 100 nM incubated for 3 days by Annexin V/ PI staining based flow cytometry (reference value: 12.8%); assay type: functional; settings: time 3 day
[5] = Acute toxicity in Kunming mouse assessed as change in body weight at 30 to 100 mg/kg administered via gavage once every other day for 14 days; assay type: organism-based; settings: in vivo, po, 336 h, dose 30-100 mg/kg, time 14 day
[6] = Acute toxicity in Kunming mouse assessed as change in cellular morphology of lung at 100 mg/kg administered once every other day via gavage for 14 days by H and E staining based analysis; assay type: organism-based; settings: in vivo, po, 336 h, time 14 day
[7] = Apparent volume of distribution in rat at 2.5 mg/kg, po measured upto 96 hrs by LC-MS/MS analysis; assay type: ADME, organism-based; settings: in vivo
[8] = tested on: MDA-MB-436; assay: Antitumor activity against human MDA-MB-436 cells xenografted in female NOD/SCID mouse assessed as inhibition of tumor growth administered orally once every other day for 28 days; assay type: functional, cell-based; settings: dose 0.3-3 mg/kg, route po, time 28.0 day
[9] = Acute toxicity in Kunming mouse assessed as change in body weight at 100 to 300 mg/kg administered orally via gavage for 14 days; assay type: organism-based; settings: in vivo, po, 336 h, dose 100-300 mg/kg, time 14 day
[10] = Acute toxicity in Kunming mouse assessed as mortality at 100 to 300 mg/kg administered orally via gavage for 14 days; assay type: organism-based; settings: in vivo, po, 336 h, dose 100-300 mg/kg, time 14 day
[11] = Acute toxicity in Kunming mouse assessed as change in cellular morphology of kidney at 100 mg/kg administered once every other day via gavage for 14 days by H and E staining based analysis; assay type: organism-based; settings: in vivo, po, 336 h, time 14 day
[12] = Half life in rat at 2.5 mg/kg, po measured upto 96 hrs by LC-MS/MS analysis; assay type: ADME, organism-based; settings: in vivo
[13] = tested on: MDA-MB-436; assay: Antitumor activity against human MDA-MB-436 cells xenografted in female NOD/SCID mouse assessed as weaker Ki67 staining at 0.3 to 3 mg/kg, po administered once every other day for 28 days by immunohistochemical analysis; assay type: functional, organism-based; settings: dose 0.3-3 mg/kg, time 28.0 day
[14] = Clearance in male Balb/c mouse at 1 mg/kg, iv measured upto 96 hrs by LC-MS/MS analysis; assay type: ADME, organism-based; settings: in vivo, iv, 1 mg/kg, 96 h
[15] = tested on: MDA-MB-436; assay: Induction of cell cycle arrest in human MDA-MB-436 cells assessed as accumulation of cells at S phase at 100 nM incubated for 3 days by PI staining based flow cytometric analysis (Rvb =18.94%); assay type: functional; settings: time 3 day
[16] = tested on: MDA-MB-436; assay: Induction of cell cycle arrest in human MDA-MB-436 cells assessed as accumulation of cells at G0/G1 phase at 1 nM incubated for 3 days by PI staining based flow cytometric analysis (Rvb =56.18%); assay type: functional; settings: time 3 day
[17] = Sub-acute toxicity in Kunming mouse assessed as change ASTL level at 100 to 300 mg/kg administered via gavage for 14 days; assay type: organism-based; settings: in vivo, po, 336 h, dose 100-300 mg/kg, time 14 day
[18] = tested on: DLD-1; assay: Inhibition of colony formation in BRCA2 knockout human DLD-1 cells assessed as reduction in survival rate incubated for 10 days by crystal violet staining based assay; assay type: functional, cell-based; settings: dose 0.1-100 nM, time 10.0 day
[19] = AUC(0 to t) in rat at 2.5 mg/kg, iv measured upto 96 hrs by LC-MS/MS analysis; assay type: ADME, organism-based; settings: in vivo
[20] = Acute toxicity in Kunming mouse assessed as change in cellular morphology of spleen at 100 mg/kg administered once every other day via gavage for 14 days by H and E staining based analysis; assay type: organism-based; settings: in vivo, po, 336 h, time 14 day
[21] = tested on: MDA-MB-436; assay: Induction of cell cycle arrest in human MDA-MB-436 cells assessed as accumulation of cells at G2/M phase at 1 nM incubated for 3 days by PI staining based flow cytometric analysis (Rvb =24.88%); assay type: functional; settings: time 3 day
[22] = Clearance in male Balb/c mouse at 1 mg/kg, po measured upto 96 hrs by LC-MS/MS analysis; assay type: ADME, organism-based; settings: in vivo, po, 1 mg/kg, 96 h
[23] = Acute toxicity in Kunming mouse assessed as change in cellular morphology of heart at 100 mg/kg administered once every other day via gavage for 14 days by H and E staining based analysis; assay type: organism-based; settings: in vivo, po, 336 h, time 14 day
[24] = Acute toxicity in Kunming mouse assessed as change in heart structure at 300 mg/kg administered via gavage for 14 days by H and E staining based analysis; assay type: organism-based; settings: in vivo, po, 336 h, time 14 day
[25] = Clearance in rat at 2.5 mg/kg, iv measured upto 96 hrs by LC-MS/MS analysis; assay type: ADME, organism-based; settings: in vivo
[26] = tested on: MDA-MB-436; assay: Induction of apoptosis in human MDA-MB-436 cells assessed as late apoptotic cells at 1 nM incubated for 3 days by Annexin V/ PI staining based flow cytometry (reference value: 6.57%); assay type: functional; settings: time 3 day
[27] = Half life in rat at 2.5 mg/kg, iv measured upto 96 hrs by LC-MS/MS analysis; assay type: ADME, organism-based; settings: in vivo
[28] = Toxicity in female NOD/SCID mouse xenografted with human MDA-MB-436 cells assessed as histological changes in lung at 3 mg/kg, po administered once every other day for 28 days by H and E staining based analysis; assay type: organism-based; settings: in vivo, 672 h, time 28 day
[29] = Clearance in rat at 2.5 mg/kg, po measured upto 96 hrs by LC-MS/MS analysis; assay type: ADME, organism-based; settings: in vivo
[30] = tested on: MDA-MB-436; assay: Antitumor activity against human MDA-MB-436 cells xenografted in female NOD/SCID mouse assessed as tumor growth inhibition at 0.3 mg/kg, po administered once every other day for 28 days relative to control; assay type: functional; parameters: scale not given: the % may be the effect or the level left; settings: time 28 day
[31] = Apparent volume of distribution in male Balb/c mouse at 1 mg/kg, iv measured upto 96 hrs by LC-MS/MS analysis; assay type: ADME, organism-based; settings: in vivo, iv, 1 mg/kg, 96 h
[32] = AUC(0 to t) in male Balb/c mouse at 1 mg/kg, iv measured upto 96 hrs by LC-MS/MS analysis; assay type: ADME, organism-based; settings: in vivo, iv, 1 mg/kg, 96 h
[33] = Acute toxicity in Kunming mouse assessed as mortality at 30 to 100 mg/kg administered via gavage once every other day for 14 days; assay type: organism-based; settings: in vivo, po, 336 h, dose 30-100 mg/kg, time 14 day
[34] = tested on: MDA-MB-436; assay: Inhibition of colony formation in human MDA-MB-436 cells assessed as reduction in survival rate incubated for 10 days by crystal violet staining based assay; assay type: functional, cell-based; settings: dose 0.1-100 nM, time 10.0 day
[35] = Sub-acute toxicity in Kunming mouse assessed as change ALB2 level at 100 to 300 mg/kg administered via gavage for 14 days; assay type: organism-based; settings: in vivo, po, 336 h, dose 100-300 mg/kg, time 14 day
[36] = Tmax in male Balb/c mouse at 1 mg/kg, iv measured upto 96 hrs by LC-MS/MS analysis; assay type: ADME, organism-based; settings: in vivo

Structure (SMILES): CCc1cc2ncc(CN3CC=C(c4ccc(C#N)cn4)CC3)cc2[nH]c1=O
- Survival [1]: 70 days
- EC50 [2]: 0.9 nM
- Activity [3]: Non-toxic
- Activity [4]: 21.9%
- Activity [5]: Non-toxic
- Activity [6]: Non-toxic
- Vz [7]: 0.33 L/kg
- Activity [8]: Dose-dependent-effect
- Activity [9]: Non-toxic
- Activity [10]: Non-toxic
- Activity [11]: Non-toxic
- half-life [12]: 47.4 h
- Activity [13]: Active
- CL [14]: 0.17 mL/min/kg
- Activity [15]: 9.37%
- Activity [16]: 56.97%
- Activity [17]: Non-toxic
- inhibition [18]: Dose-dependent-effect
- AUC(0-t) at 96 h [19]: 510 µg·h/mL
- Activity [20]: Non-toxic
- Activity [21]: 28.04%
- CL [22]: 0.17 mL/min/kg
- Activity [23]: Non-toxic
- Activity [24]: Non-toxic
- clearance [25]: 0.167 mL/min/kg
- Activity [26]: 8.18%
- half-life [27]: 27.8 h
- Activity [28]: Non-toxic
- CL/F [29]: 0.167 mL/min/kg
- Activity [30]: 89.9%
- Vz [31]: 0.16 L/kg
- AUCt [32]: 897.43221 µg·h/mL
- Activity [33]: Non-toxic
- inhibition [34]: Dose-dependent-effect
- Activity [35]: Non-toxic
- Tmax [36]: 4.8 min
